Measured values reported in ChEMBL document CHEMBL1201862, “PubChem BioAssay data set” (2004).
Calls of active or inactive are those of the source.

Key:
Albumin = Albumin (Bos taurus, UniProt P02769); assay: Counterscreen for inhibitors of T-cell receptor (TCR)-CD3 interaction: Fluorescence-based biochemical high throughput dose response assay to identify inhibitors of T-cell receptor (TCR)-CD3 interaction using a TAMRA-labeled BSA probe.; format: functional
[1] = viability of PTEN-deleted HCT116 cells – cell-based, HCT116 PTEN knockout, dose response (AID 1047); format: functional;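 further: HCT116 colon tumor cells with PTEN knocked out; cells exposed to compound for 60 hours before readout; potency for loss of cell viability measured by luminescence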
[2] = target: Induced myeloid leukemia cell differentiation protein Mcl-1 (Homo sapiens, UniProt Q07820); format: functional
Sequence of Induced myeloid leukemia cell differentiation protein Mcl-1 (Q07820 whole entry): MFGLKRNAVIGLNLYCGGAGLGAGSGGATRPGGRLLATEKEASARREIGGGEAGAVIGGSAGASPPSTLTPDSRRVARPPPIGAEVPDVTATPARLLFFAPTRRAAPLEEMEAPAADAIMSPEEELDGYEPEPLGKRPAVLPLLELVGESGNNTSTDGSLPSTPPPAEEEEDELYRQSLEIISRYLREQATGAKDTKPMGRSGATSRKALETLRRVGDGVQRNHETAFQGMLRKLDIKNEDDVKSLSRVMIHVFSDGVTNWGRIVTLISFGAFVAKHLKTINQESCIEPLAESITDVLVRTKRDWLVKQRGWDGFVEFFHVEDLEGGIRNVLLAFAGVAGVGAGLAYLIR

HEK293 [3] = assay: cells; settings: Homo sapiens
Protein RecA = target: T1, Protein RecA (Mycobacterium tuberculosis, UniProt P9WHJ3); assay: Fluorescence Cell-Free Homogeneous Dose Retest to Identify Inhibitors of RecA-Intein Splicing Activity. [Related pubchem assays (depositor defined):AID2097, AID2223, AID489010, AID492950]; format: functional
T1 sequence (P9WHJ3 whole entry): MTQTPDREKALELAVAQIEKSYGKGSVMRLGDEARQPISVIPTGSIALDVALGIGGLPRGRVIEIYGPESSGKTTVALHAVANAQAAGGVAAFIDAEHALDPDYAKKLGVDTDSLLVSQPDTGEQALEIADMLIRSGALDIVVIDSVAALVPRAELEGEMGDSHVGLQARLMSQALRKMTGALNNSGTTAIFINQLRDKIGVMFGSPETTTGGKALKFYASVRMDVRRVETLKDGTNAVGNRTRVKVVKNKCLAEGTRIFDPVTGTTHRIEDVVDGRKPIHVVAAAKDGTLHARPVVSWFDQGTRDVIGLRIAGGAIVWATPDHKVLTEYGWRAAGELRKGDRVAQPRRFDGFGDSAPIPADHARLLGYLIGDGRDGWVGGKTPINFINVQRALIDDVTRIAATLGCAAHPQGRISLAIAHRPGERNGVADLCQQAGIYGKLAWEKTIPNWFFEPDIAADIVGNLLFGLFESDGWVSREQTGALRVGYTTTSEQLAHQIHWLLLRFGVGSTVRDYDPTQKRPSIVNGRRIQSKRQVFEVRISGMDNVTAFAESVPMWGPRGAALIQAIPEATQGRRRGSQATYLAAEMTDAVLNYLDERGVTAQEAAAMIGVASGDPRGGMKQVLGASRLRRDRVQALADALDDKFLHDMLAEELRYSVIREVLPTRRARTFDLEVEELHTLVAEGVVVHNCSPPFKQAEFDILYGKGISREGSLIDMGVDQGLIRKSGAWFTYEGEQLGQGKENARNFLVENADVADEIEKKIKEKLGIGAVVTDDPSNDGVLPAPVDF

[4] = viability loss in HEK293T cells – cell-based, cherry-picks, cytotoxicity control for HIV Vif inhibitor project, dose response (AID 652208); format: functional
[5] = viability of HCT116 lacking mutant beta-catenin – cell-based, human colon tumor, dose response (AID 1045); format: functional;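 further: HCT116 colon tumor cells with beta catenin knocked out; cells exposed to compound for 60 hours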
HEK293 [6] = assay: cells; settings: Homo sapiens; remark: listed apart in the source
[7] = target: T2, Replicative DNA helicase DnaB (Mycobacterium tuberculosis, UniProt P9WMR3); assay: DnaB intein splicing inhibitors, dose response, biochemical, cell-free fluorescence (AID 449749); format: functional
T2 sequence (P9WMR3 whole entry): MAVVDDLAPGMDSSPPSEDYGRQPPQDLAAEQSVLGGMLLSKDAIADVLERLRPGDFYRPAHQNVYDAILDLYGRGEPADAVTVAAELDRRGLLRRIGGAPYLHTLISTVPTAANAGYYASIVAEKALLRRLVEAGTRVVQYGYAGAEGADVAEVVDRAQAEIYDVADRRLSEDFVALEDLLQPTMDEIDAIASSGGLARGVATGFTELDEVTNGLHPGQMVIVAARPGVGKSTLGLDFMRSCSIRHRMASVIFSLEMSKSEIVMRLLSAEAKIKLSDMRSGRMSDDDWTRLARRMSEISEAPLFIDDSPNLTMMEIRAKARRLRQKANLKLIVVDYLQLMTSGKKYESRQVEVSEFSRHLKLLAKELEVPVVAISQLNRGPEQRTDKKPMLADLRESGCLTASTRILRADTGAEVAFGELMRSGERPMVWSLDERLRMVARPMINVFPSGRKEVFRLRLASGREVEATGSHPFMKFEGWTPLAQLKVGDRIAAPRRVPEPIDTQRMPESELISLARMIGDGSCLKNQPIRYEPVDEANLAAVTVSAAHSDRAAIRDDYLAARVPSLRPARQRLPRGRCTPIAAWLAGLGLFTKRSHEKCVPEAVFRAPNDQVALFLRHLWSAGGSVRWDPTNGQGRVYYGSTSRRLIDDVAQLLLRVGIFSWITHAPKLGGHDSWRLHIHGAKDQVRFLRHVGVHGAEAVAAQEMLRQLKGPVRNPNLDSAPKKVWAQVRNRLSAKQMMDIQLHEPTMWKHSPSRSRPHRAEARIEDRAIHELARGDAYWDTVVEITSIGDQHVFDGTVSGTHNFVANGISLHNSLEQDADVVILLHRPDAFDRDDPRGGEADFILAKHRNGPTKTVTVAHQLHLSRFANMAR

[8] = system: Streptococcus sp. 'group A'; assay: Streptococcus pyogenes SK(-)GAS viability under kanamycin – luminescence, BacTiterGlo, confirmation, counter-screen for streptokinase expression inhibitor project, dose response (AID 1900); format: functional, organism-based
Streptokinase A = target: T3, Streptokinase A (Streptococcus pyogenes serotype M1, UniProt P10520); assay: viability-normalized secreted streptokinase activity reduction – plasminogen activation absorbance, OD405, dose response (AID 1914); format: functional, Streptococcus pyogenes M1 GAS;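 further: secreted streptokinase activity via plasminogen activation per viability signal from cell pellet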
T3 sequence (P10520 whole entry): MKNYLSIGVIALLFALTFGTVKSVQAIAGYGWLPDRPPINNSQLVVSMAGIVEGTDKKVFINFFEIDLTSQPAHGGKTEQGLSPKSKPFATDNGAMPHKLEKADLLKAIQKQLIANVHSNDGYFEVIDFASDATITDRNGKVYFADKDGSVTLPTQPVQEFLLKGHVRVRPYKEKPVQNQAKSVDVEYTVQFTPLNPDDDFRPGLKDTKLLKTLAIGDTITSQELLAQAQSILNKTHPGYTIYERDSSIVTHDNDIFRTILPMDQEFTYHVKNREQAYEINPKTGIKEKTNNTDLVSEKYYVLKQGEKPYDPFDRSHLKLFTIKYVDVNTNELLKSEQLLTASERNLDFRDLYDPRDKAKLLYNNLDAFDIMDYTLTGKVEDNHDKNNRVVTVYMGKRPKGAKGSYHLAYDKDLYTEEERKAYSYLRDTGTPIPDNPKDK

[9] = target: T4, Heat shock factor protein 1 (Mus musculus, UniProt P38532); assay: decrease of HSF1-responsive luciferase luminescence – cell-based, NIH3T3, dose retest, confirmation (AID 2382); format: functional;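 further: NIH3T3 fibroblasts with HSF1-driven luciferase reporter stressed by proteasome inhibitor MG132; luminescence from HSF1-driven luciferase expression after 8 hours of MG132 stress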
T4 sequence (P38532 whole entry): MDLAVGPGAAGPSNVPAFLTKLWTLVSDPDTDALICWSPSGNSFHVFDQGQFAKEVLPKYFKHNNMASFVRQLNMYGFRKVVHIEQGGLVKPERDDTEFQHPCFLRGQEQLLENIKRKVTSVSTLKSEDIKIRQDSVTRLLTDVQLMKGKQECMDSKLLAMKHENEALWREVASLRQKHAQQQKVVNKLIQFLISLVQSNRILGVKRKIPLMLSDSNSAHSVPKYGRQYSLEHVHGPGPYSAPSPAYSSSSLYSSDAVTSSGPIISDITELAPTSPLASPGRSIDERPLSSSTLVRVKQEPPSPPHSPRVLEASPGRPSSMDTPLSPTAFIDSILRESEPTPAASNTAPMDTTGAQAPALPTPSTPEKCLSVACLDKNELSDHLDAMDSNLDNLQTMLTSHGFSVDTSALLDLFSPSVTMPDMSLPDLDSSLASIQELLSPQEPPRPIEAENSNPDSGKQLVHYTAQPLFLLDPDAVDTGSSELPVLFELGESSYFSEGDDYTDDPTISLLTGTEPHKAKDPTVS

[10] = target: T5, Short transient receptor potential channel 4 (Mus musculus, UniProt Q9QUQ5); assay: calcium entry via TRPC4 opening agents – cell-based, HEK293 TRPC4/mu-opioid, Fluo-4 calcium, dose response (AID 434937); format: functional
T5 sequence (Q9QUQ5 whole entry): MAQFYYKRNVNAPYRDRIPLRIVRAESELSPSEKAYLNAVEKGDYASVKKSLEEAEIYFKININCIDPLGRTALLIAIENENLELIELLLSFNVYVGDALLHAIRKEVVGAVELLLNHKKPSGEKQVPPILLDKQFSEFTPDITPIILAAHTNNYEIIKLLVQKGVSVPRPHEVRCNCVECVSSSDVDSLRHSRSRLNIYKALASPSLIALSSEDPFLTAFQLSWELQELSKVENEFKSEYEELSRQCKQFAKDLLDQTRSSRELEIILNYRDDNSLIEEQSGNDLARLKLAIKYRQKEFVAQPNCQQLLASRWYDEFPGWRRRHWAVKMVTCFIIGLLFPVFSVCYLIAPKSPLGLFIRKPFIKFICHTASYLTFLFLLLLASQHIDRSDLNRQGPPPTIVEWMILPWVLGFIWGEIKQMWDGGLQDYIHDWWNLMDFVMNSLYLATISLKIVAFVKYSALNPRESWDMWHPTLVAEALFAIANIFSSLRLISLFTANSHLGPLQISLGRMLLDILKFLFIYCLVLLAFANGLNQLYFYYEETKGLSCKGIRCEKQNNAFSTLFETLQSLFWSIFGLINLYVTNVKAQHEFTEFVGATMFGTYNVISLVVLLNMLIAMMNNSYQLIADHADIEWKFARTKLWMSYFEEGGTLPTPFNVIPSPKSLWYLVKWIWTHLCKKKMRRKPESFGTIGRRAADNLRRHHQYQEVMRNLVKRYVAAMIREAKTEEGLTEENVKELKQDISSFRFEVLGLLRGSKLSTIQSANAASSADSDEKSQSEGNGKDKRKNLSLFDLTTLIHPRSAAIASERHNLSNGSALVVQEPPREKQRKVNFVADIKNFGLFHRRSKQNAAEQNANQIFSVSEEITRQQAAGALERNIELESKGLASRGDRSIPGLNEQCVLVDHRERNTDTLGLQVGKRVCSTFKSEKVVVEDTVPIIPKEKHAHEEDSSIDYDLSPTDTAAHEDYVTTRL

Streptococcus = assay: GAS UMAA2166 growth inhibition – luminescence, BacTiterGlo, counter-screen for streptokinase expression inhibitor project, dose response (AID 1915); format: functional, organism-based;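 further: potency for reduction of bacterial viability or growth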

Sequence of Albumin (P02769 whole entry): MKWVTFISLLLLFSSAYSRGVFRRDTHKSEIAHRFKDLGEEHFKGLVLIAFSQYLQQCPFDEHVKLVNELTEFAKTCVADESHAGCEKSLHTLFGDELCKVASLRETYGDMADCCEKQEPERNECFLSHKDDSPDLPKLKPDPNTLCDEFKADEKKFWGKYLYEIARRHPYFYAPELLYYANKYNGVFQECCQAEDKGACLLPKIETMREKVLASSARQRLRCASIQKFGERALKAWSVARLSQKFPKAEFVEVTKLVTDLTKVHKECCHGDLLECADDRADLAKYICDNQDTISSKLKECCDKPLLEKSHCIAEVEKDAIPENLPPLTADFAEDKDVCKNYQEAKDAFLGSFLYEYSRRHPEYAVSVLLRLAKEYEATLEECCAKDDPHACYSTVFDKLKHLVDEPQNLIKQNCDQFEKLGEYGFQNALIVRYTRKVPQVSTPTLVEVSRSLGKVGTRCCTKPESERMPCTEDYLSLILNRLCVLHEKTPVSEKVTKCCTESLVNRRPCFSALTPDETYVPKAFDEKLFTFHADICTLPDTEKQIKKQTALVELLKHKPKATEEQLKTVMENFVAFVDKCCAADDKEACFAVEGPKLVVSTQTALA

SMILES	IC50 (Albumin)	EC50 [1]	IC50 [2]	EC50 (HEK293 [3])	EC50 (Protein RecA)	AC50 [4]	EC50 [5]	EC50 (HEK293 [6])	AC50 [7]	EC50 [8]	EC50 (Streptokinase A)	EC50 [9]	EC50 [10]	EC50 (Streptococcus)
CCC1=NN(C(=O)c2cccc([N+](=O)[O-])c2)C(O)(c2ccc(C)cc2)C1 (stereo not given)	> 94.1 µM (inactive)													
COc1ccc(NC(=O)Cn2ncc(Cl)c(Cl)c2=O)cc1S(=O)(=O)N1CCOCC1		7.27 µM (active)	6.5 µM (active)	> 59.6 µM (inactive)	10.1 µM (active)	10.8 µM (active)	5.71 µM (active)	> 59.6 µM (inactive)	44.2 µM (active)					
COc1ccc(C(=O)NNC(=S)NC(=O)c2cccs2)cc1	> 94 µM (inactive)									3.71 µM (active)	> 150 µM (not active)	> 195 µM (not active)	10.6 µM (active)	15.1 µM (active)
